Legend:
Coniophora puteana = assay: Laboratory soil-block decay resistance test, AWPA Standard E10-2015, treated southern pine sapwood cubes; type: cell-based; details: micronized penflufen
Description: (§1) The synergism was determined using a modified method as described by Kull et al. (Applied Microbiology, 1961 (9): 538-541). The modified method is described as below: QA/Qa+QB/Qb=SI • Where: • Qa=concentration of substance A alone which controls a particular decay fungus • Qb=concentration of substance B alone which controls a particular decay fungus • QA=concentration of substance A in the concentration of the A and B mixture at which controls a particular decay fungus • QB=concentration of substance B in the concentration of the A and B mixture at which controls a particular decay fungus • SI=1 means additivity • SI>1 means antagonism • SI<1 means synergism
(§2) Wood cubes measuring 19 mm×19 mm×19 mm were prepared from southern pine sapwood. One set of wood cubes were pressured treated with serial treating solutions containing penflufen fungicide. A second set of wood cubes were pressure treated with treating solutions containing the copper fungicide. A third set of wood cubes were pressure treated with treating solutions containing a mixture of the copper and penflufen. The treated wood samples were exposed to various fungi to conduct a laboratory decay resistance test following protocols as described in American Wood Protection Association Standard E10-2015. Before and after exposure to fungi, the wood samples were weighed to determine the weight percent loss. No weight loss means complete control of the fungal attack.
(§3) Wood cubes measuring 19 mm×19 mm×19 mm were prepared from southern pine sapwood. The wood cubes were pressure treated with treating solutions containing micronized penflufen. The treated wood samples were exposed to various fungi to conduct a laboratory decay resistance test following protocols as described in American Wood Protection Association Standard E10-2015. Before and after exposure to fungi, the wood samples were weighed to determine the weight percent loss.

Postia placenta = assay: as above; type: cell-based; details: micronized penflufen
Description: as §1, §2, §3

Gloeophyllum trabeum = assay: as above; type: cell-based; details: micronized penflufen
Description: as §1, §2, §3

Fibroporia radiculosa = assay: as above; type: cell-based; details: micronized penflufen
Description: as §1, §2, §3

[1] = Particle size of penflufen after milling with 1 mm zirconia; type: physicochemical; details: milled with 1 mm zirconia
Excerpt: The attainment of the injectable size, which generally requires both a d50 below 0.5 microns and a d98 less than three times the d50, was a surprising development. […] Milling a milling-resistant organic biocide, such as penflufen, with 1 mm zirconia provided a penflufen product with a d50 of 2 to 3 microns.

With `Cc1nn(C)c(F)c1C(=O)Nc1ccccc1C(C)CC(C)C` (stereo not drawn) [Penflufen, penflufen] the “Mean Percent Weigh Loss of Treated Wood Cubes” value (“Mean Percent Weigh Loss” for short) (Coniophora puteana; Penflufen Retention 8 g/m^3) was 1.4%, the “Mean Percent Weigh Loss” value (Coniophora puteana; Penflufen Retention 12 g/m^3) was 1.6% and the “Mean Percent Weigh Loss” value (Coniophora puteana; Penflufen Retention 16 g/m^3) was 1.6%. The “Mean Percent Weigh Loss” value (Coniophora puteana; Penflufen Retention 24 g/m^3) was 1.5%, the “Mean Percent Weigh Loss” value (Coniophora puteana; Penflufen Retention 32 g/m^3) was 1.1% and the “Mean Percent Weigh Loss” value (Coniophora puteana; Penflufen Retention 48 g/m^3) was 1.4%. For the same compound, the “Mean Percent Weigh Loss” value (Coniophora puteana; Penflufen Retention 64 g/m^3) was 2.0%, the “Mean Percent Weigh Loss” value (Coniophora puteana; Penflufen Retention 80 g/m^3) was 1.3% and the “Mean Percent Weigh Loss” value (Postia placenta; Penflufen Retention 8 g/m^3) was 3.5%. The “Mean Percent Weigh Loss” value (Postia placenta; Penflufen Retention 12 g/m^3) was 1.9%, the “Mean Percent Weigh Loss” value (Postia placenta; Penflufen Retention 16 g/m^3) was 2.1% and the “Mean Percent Weigh Loss” value (Postia placenta; Penflufen Retention 24 g/m^3) was 1.2%. For the same compound, the “Mean Percent Weigh Loss” value (Postia placenta; Penflufen Retention 32 g/m^3) was 1.2%, the “Mean Percent Weigh Loss” value (Postia placenta; Penflufen Retention 48 g/m^3) was 1.1% and the “Mean Percent Weigh Loss” value (Postia placenta; Penflufen Retention 64 g/m^3) was 1.1%. The “Mean Percent Weigh Loss” value (Postia placenta; Penflufen Retention 80 g/m^3) was 1.3%, the “Mean Percent Weigh Loss” value (Gloeophyllum trabeum; Penflufen Retention 8 g/m^3) was 3.1% and the “Mean Percent Weigh Loss” value (Gloeophyllum trabeum; Penflufen Retention 12 g/m^3) was 2.9%. For the same compound, the “Mean Percent Weigh Loss” value (Gloeophyllum trabeum; Penflufen Retention 16 g/m^3) was 3.6%, the “Mean Percent Weigh Loss” value (Gloeophyllum trabeum; Penflufen Retention 24 g/m^3) was 3.0% and the “Mean Percent Weigh Loss” value (Gloeophyllum trabeum; Penflufen Retention 32 g/m^3) was 3.5%. The “Mean Percent Weigh Loss” value (Gloeophyllum trabeum; Penflufen Retention 48 g/m^3) was 3.0%, the “Mean Percent Weigh Loss” value (Gloeophyllum trabeum; Penflufen Retention 64 g/m^3) was 1.6% and the “Mean Percent Weigh Loss” value (Gloeophyllum trabeum; Penflufen Retention 80 g/m^3) was 2.0%. The “Mean Percent Weigh Loss” value (Fibroporia radiculosa; Penflufen Retention 8 g/m^3) was 12.0%, the “Mean Percent Weigh Loss” value (Fibroporia radiculosa; Penflufen Retention 12 g/m^3) was 10.4% and the “Mean Percent Weigh Loss” value (Fibroporia radiculosa; Penflufen Retention 16 g/m^3) was 8.2%. For the same compound, the “Mean Percent Weigh Loss” value (Fibroporia radiculosa; Penflufen Retention 24 g/m^3) was 8.2%, the “Mean Percent Weigh Loss” value (Fibroporia radiculosa; Penflufen Retention 32 g/m^3) was 5.4% and the “Mean Percent Weigh Loss” value (Fibroporia radiculosa; Penflufen Retention 48 g/m^3) was 5.7%. The “Mean Percent Weigh Loss” value (Fibroporia radiculosa; Penflufen Retention 64 g/m^3) was 4.4%, the “Mean Percent Weigh Loss” value (Fibroporia radiculosa; Penflufen Retention 80 g/m^3) was 3.0% and the d50 [1] was 2 to 3 microns.
